Counter-ions that a name gives are not always drawn.
Biological target: T1, human recombinant KDM1A (LSD1)/CoRest (Homo sapiens, UniProt O60341)
T1 construct: made in house; host or cells: E. coli
Experiment: Assay of enzyme inhibition of KDM1A (LSD1), Amplex UltraRed/peroxidase coupled
Format: biochemical
Conditions: 15 min preincubation, 4.5 μM mono-methylated H3-K4 peptide, range classes, read-out: IC50 [μM], KDM1A inhibition assay
Procedure: The experiments were performed using a mono-methylated H3-K4 peptide containing 21 amino acids (custom synthesis done by Thermo Scientific) as substrate and in a 50 mM TRIS, pH 8, 0.05 mg/ml BSA buffer.
The demethylase activity was estimated under aerobic conditions and at RT by measuring the release of H2O2 produced during the catalytic process by the Amplex® UltraRed detection system coupled with peroxidase assay. Briefly, a fixed amount of KDM1A/CoRest complex was incubated at RT for 15 minutes in the absence and/or the presence of various concentrations of inhibitor (e.g. from 0 to 100 μM, depending on the inhibitor strength) and of Amplex® UltraRed detection system coupled with peroxidase assay. The inhibitors were tested twice in duplicates at each concentration. […] The conversion of the Amplex® Ultra Red reagent to resorufin was monitored in continuous by fluorescence (excitation at 540 nm, emission at 590 nm) using a microplate reader (Infinite 200, Tecan). Arbitrary units were used to measure the level of H2O2 produced in the absence and/or in the presence of inhibition. The maximum demethylase activity of KDM1A/CoRest was obtained in the absence of inhibitors and corrected for background fluorescence in the absence of KDM1A/CoRest. The IC50 was calculated using GraphPad Software.

| IC50 [µM] | Compound |
| --- | --- |
| < 0.1 | N[C@]1(c2ccccc2)C[C@H]1c1ccc(NC(=O)Cc2ccc3ccccc3c2)cc1 (relative stereo) [Example A-107, N-[4-(trans-2-amino-2-phenyl-cyclopropyl)phenyl]-2-(2-naphthyl) acetamide 2,2,2-trifluoroacetic acid] |
| < 0.1 | N[C@]1(c2ccccc2)C[C@H]1c1ccc(NC(=O)c2ccncc2)cc1 (relative stereo) [Example A-108, N-[4-(trans-2-amino-2-phenyl-ccyclopropyl)phenyl] pyridine-4-carboxamide dihydrochloride] |
| < 0.1 | CN1CCC(c2ccc(C(=O)Nc3ccc([C@@H]4C[C@]4(N)c4ccccc4)cc3)cc2)CC1 (relative stereo) [Example A-109, N-[4-(trans-2-amino-2-phenyl-cyclopropyl]phenyl)-4-(1-methyl-4-piperidyl) benzamide dihydrochloride] |
| < 0.1 | CN1CCN(c2ccc(C(=O)Nc3ccc([C@@H]4C[C@]4(N)c4ccccc4)cc3)cc2)CC1 (relative stereo) [Example A-110, N-[4-(trans-2-amino-2-phenyl-cyclopropyl)phenyl]-4-(4-methylpiperazin-1-yl)benzamide hydrochloride] |
| < 0.1 | N[C@]1(c2ccccc2)C[C@H]1c1ccc(NC(=O)c2cccc(N3CCOC3=O)c2)cc1 (relative stereo) [Example A-111, N-[4-(trans-2-amino-2-phenyl-cyclopropyl)phenyl]-3-(2-oxooxazolidin-3-yl)benzamide hydrochloride] |
| < 0.1 | N[C@]1(CCc2ccccc2)C[C@H]1c1ccc(NC(=O)c2ccncc2)cc1 (relative stereo) [Example A-112, N-[4-(trans-2-amino-2-phenethyl-cyclopropyl)phenyl] pyridine-4-carboxamide hydrochloride] |
| 0.1 to 1 | CC[C@@]1(N)C[C@H]1c1ccc(NC(=O)c2ccc(NCCO)cc2)cc1 (relative stereo) [Example A-120, N-[4-(trans-2-amino-2-ethyl-cyclopropyl]phenyl)-4-(2-hydroxyethylamino)benzamide hydrochloride] |
| 0.1 to 1 | CC[C@@]1(N)C[C@H]1c1ccccc1-n1cc(-c2ccccc2)nn1 (relative stereo) [Example A-125, trans 1-ethyl-2-[2-(4-phenyltriazol-1-yl)phenyl]cyclopropan amine hydrochloride] |
| 0.1 to 1 | COc1cccc([C@@H]2C[C@]2(N)Cc2ccccc2)c1 (relative stereo) [Example A-129, trans 1-Benzyl-2-(3-methoxyphenyl)cyclopropanamine hydrochloride] |
| 0.1 to 1 | CC[C@@]1(N)C[C@H]1c1cccc(N2CCN(c3ccccc3)C2=O)c1 (relative stereo) [Example A-130, 1-[3-[(trans-2-amino-2-ethyl-cyclopropyl]phenyl]-3-phenyl-imidazolidin-2-one hydrochloride] |
| < 0.1 | CC[C@@]1(N)C[C@H]1c1ccc(-n2cc(-c3ccccc3)nn2)cc1 (relative stereo) [Example A-131, trans-1-Ethyl-2-[4-(4-phenyltriazol-1-yl)phenyl]cyclopropanamine hydrochloride] |
| 1 to 5 | N[C@]1(CNC2CC2)C[C@H]1c1ccccc1 (relative stereo) [Example B-4, trans 1-[(cyclopropylamino)methyl]-2-phenyl-cyclopropanamine dihydrochloride] |
| 1 to 5 | CN1CCN(C[C@@]2(N)C[C@H]2c2ccccc2)CC1 (relative stereo) [Example B-5, trans-1-[(4-methylpiperazine-1-yl)methyl]-2-phenyl-cyclopropanamine trihydrochloride] |
| 0.1 to 1 | CC[C@@]1(NCC(=O)N2CCN(C)CC2)C[C@H]1c1ccccc1 (relative stereo) [Example C-6, trans-2-[[(1-ethyl-2-phenyl-cyclopropyl]amino]-1-(1-methylpiperazin-1-yl)ethanone trifluoroacetate] |
| 1 to 5 | CC[C@@]1(NCc2ccccc2)C[C@H]1c1ccccc1 (relative stereo) [Example C-13, trans-N-benzyl-1-ethyl-2-phenyl-cyclopropanamine hydrochloride] |
| 0.1 to 1 | C[C@@]1(NCc2cnc(N)nc2)C[C@H]1c1ccccc1 (relative stereo) [Example C-19, 5-{[(trans-1-methyl-2-phenyl-cyclopropyl)amino]methyl} pyrimidin-2-amine dihydrochloride] |
| 1 to 5 | COc1ncccc1CN[C@]1(C)C[C@H]1c1ccccc1 (relative stereo) [Example C-20, trans-N-[(2-methoxy-3-pyridyl)methyl]-1-methyl-2-phenyl-cyclopropanamine] |
| 0.1 to 1 | C[C@@]1(NCc2ccc3c(c2)OCCO3)C[C@H]1c1ccccc1 (relative stereo) [Example C-21, trans-N-(2,3-dihydro-1,4-benzodioxin-6-ylmethyl)-1-methyl-2-phenyl-cyclopropanamine 2,2,2-trifluoroacetic acid] |
| 0.1 to 1 | CN1CCN(C(=O)CN[C@]2(c3ccccc3)C[C@H]2c2ccccc2)CC1 (relative stereo) [Example C-23, 2-[[trans-1,2-diphenylcyclopropyl]amino]-1-(4-methylpiperazin-1-yl)ethanone dihydrochloride] |
| < 0.1 | CN1CCN(C(=O)CN[C@]2(C)C[C@H]2c2ccccc2)CC1 (relative stereo) [Example C-27, 2-[[trans-1-methyl-2-phenyl-cyclopropyl]amino]-1-(4-methylpiperazin-1-yl)ethanone dihydrochloride] |
| 1 to 5 | CN1CCN(C(=O)CN[C@@]2(C)C[C@H]2c2ccccc2)CC1 (relative stereo) [Example C-28, 2-[[cis-1-methyl-2-phenyl-cyclopropyl]amino]-1-(4-methylpiperazin-1-yl)ethanone dihydrochloride] |
| 0.1 to 1 | CC[C@@]1(NCCN2CCCCC2)C[C@H]1c1ccccc1 (relative stereo) [Example C-31, trans-1-Ethyl-2-phenyl-N-[2-(1-piperidyl)ethyl]cyclopropanamine dihydrochloride] |
| 0.1 to 1 | C[C@@]1(NCc2nnc(N)o2)C[C@H]1c1ccccc1 (relative stereo) [Example C-32, 5-[[[trans-1-methyl-2-phenyl-cyclopropyl]amino]methyl]-1,3,4-oxadiazol-2-amine] |
| 0.1 to 1 | CC(=O)Nc1ccc([C@@]2(N)C[C@H]2c2ccccc2)cc1 (relative stereo) [Example D-6, N-[4-[trans-1-amino-2-phenyl-cyclopropyl]phenyl]acetamide hydrochloride] |
| < 0.1 | N[C@]1(Cc2ccc3ccccc3c2)C[C@H]1c1ccc(-n2cc(-c3cccc(NC(=O)OCc4ccccc4)c3)nn2)cc1 [Example A-123, benzyl N-[3-[1-[4-[2-amino-2-(2-naphthylmethyl)cyclopropyl]phenyl]triazol-4-yl]phenyl] carbamate hydrochloride] |
| < 0.1 | CC[C@]1(N)C[C@@H]1c1ccc(NC(=O)c2ccc(-c3ccccc3)cc2)cc1 [Example A-128, N-[4-[(1R,2S)-2-amino-2-ethyl-cyclopropyl]phenyl]-4-phenyl-benzamide hydrochloride] |

| Compound | IC50 [µM] |
| --- | --- |
| CN[C@]1(C)C[C@H]1c1ccccc1 (relative stereo) [Example C-29, trans-N,1-dimethyl-2-phenyl-cyclopropanamine hydrochloride] | 1 to 5 |
